Active and inactive are the calls of the source. The calls are words filed in the database; no cut-off is given here.

We go through 18 compounds from ChEMBL document CHEMBL3797106, “Potent and Selective Agonists of Sphingosine 1-Phosphate 1 (S1P1): Discovery and SAR of a Novel Isoxazole Based Series” (J Med Chem, 2016).

For data set [1], the target named is Sphingosine 1-phosphate receptor 3 (Homo sapiens, UniProt Q99500). Kind of data set: Agonist activity at human S1P3 receptor expressed in EDG3-Ga15-bla HEK293T cell membranes after 45 mins by [35S]-GTPgammaS binding assay. The format is functional, HEK-293T. For orientation: GTPγS is a poorly hydrolysed GTP analogue; its binding reports G protein activation.
Sequence of Sphingosine 1-phosphate receptor 3 (Q99500 whole entry): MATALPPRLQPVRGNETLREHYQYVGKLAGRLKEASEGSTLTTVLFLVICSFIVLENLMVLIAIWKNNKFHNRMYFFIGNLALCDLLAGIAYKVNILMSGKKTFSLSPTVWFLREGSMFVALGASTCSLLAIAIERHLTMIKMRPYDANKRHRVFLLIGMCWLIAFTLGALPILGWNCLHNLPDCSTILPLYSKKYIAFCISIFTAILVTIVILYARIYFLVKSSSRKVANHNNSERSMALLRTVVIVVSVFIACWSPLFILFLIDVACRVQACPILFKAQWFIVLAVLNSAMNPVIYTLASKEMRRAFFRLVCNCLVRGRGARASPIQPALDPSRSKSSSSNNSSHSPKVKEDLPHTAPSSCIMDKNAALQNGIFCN

The nature of data set [2]: Plasma concentration in Lewis rat at 1 mg/kg, po measured at 4 hrs. The data set is classed as ADME, organism-based.
In data set [3] the target is Sphingosine 1-phosphate receptor 1 (Homo sapiens, UniProt P21453). Kind of data set: Agonist activity at human S1P1 receptor expressed in CHO cell membranes after 45 mins by [35S]-GTPgammaS binding assay. The data set is classed as functional.
Sequence of Sphingosine 1-phosphate receptor 1 (P21453 whole entry): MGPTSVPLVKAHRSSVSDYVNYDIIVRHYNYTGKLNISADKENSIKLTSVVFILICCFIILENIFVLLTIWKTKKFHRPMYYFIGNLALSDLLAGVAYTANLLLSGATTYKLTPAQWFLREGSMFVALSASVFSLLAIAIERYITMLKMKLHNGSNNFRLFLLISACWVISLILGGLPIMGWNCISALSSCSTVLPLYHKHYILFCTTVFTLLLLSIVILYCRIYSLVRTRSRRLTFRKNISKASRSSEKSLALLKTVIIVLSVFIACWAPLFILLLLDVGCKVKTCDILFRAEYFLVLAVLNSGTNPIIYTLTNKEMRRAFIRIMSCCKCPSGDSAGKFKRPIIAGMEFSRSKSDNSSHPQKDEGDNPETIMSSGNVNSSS
For data set [4], the system named is Rattus norvegicus. Kind of data set: Reduction of blood lymphocyte level in Lewis rat at 1 mg/kg, po measured at 24 hrs by hematology analyzer relative to vehicle-treated control. The format is functional. The arrangement: scale not given: the % may be the effect or the level left.
In data set [5] the test system is Rattus norvegicus. In words: Reduction of blood lymphocyte level in Lewis rat at 1 mg/kg, po measured at 4 hrs by hematology analyzer relative to vehicle-treated control. The data set is classed as functional. Also noted: scale not given: the % may be the effect or the level left.
Data set [6] is filed under the species Homo sapiens. In words: Selectivity ratio of EC50 for human S1P3 receptor to EC50 for human S1P1 receptor.
Data set [7] deals with Plasma. Kind of data set: Ratio drug level in Lewis rat plasma at 1 mg/kg, po at 4 hrs to drug level in Lewis rat plasma at 1 mg/kg, po at 24 hrs. The format is ADME, organism-based. Conditions: in vivo.
Data set [8] is described as follows: Plasma concentration in Lewis rat at 1 mg/kg, po measured at 24 hrs. The data set is classed as ADME, organism-based.
The subject of data set [9] is Mus musculus. Kind of data set: Reduction in clinical score in C57BL/6 mouse experimental autoimmune encephalomyelitis model of multiple sclerosis at 1 mg/kg, po qd for 24 days started from day of immunization measured 3 times per week of compound dosing. The data set is classed as functional, organism-based.

On to `O=C(O)C1CN(Cc2ccc(-c3noc(-c4cc(-c5ccccc5)on4)n3)cc2)C1`, for which the concentration giving a half-maximal response (EC50) in data set [1] amounted to 6300 nM; in [3], 44 nM. Moreover, the concentration at 4 h in data set [2] was determined as 140 nM. For the same compound, the figures for the Activity in data set [4] and in data set [5] were 0% and 22%, respectively. Further, the Ratio EC50 in data set [6] came out at 150.
`O=C(O)C1CN(Cc2ccc(-c3noc(-c4noc(-c5ccccc5)c4C(F)(F)F)n3)cc2)C1`: the EC50 in data set [1] is 4100 nM; in [3] it was 0.98 nM. For the same compound, in [7], the Ratio is 6. This compound gave a concentration at 4 h in [2] of 1100 nM. This compound also came in with a concentration at 24 h in [8] of 180 nM. In addition, the results for the Activity in [4] and in data set [5] were 85% and 84%, respectively. In data set [6], the Ratio EC50 was found to be 4100.
In the case of `CCCc1c(-c2nc(-c3ccc(CN4CC(C(=O)O)C4)cc3)no2)noc1-c1ccccc1`, the figures for the EC50 in data set [1] and in data set [3] were 1300 nM and 0.44 nM, respectively. The Ratio in data set [7] came to 31. In data set [2], this compound came in with a concentration at 4 h of 250 nM. Also, in data set [8], the concentration at 24 h worked out at 7.9 nM. Moreover, the Activity in data set [4] is reported as 60%; in data set [5], 85%. For the same compound, the Ratio EC50 in [6] amounted to 2900.
Regarding `Cc1c(-c2ccccc2)noc1-c1nc(-c2ccc(CN3CC(C(=O)O)C3)cc2)no1`, the results for the EC50 in data set [1] and in data set [3] were 9200 nM and 1.7 nM, respectively. For the same compound, the Ratio EC50 in [6] is 5500.
On to `CC(C)Cc1onc(-c2nc(-c3ccc(CN4CC(C(=O)O)C4)cc3)no2)c1C(F)(F)F`, for which the concentration for a half-maximal effect (EC50) in [1] was found to be 6200 nM; in [3], 0.39 nM. For the same compound, the Ratio in [7] turned out to be 6. For the same compound, the concentration at 4 h in [2] was 1600 nM. The compound also displayed a concentration at 24 h in data set [8] of 280 nM. For the same compound, the Activity turned out to be 83% in [4] and 88% in data set [5]. Also, in data set [6], the Ratio EC50 amounted to 16000.
As for `CC(C)c1c(-c2nc(-c3ccc(CN4CC(C(=O)O)C4)cc3)no2)noc1-c1ccccc1`, the values for the EC50 in [1] and in [3] were 5100 nM and 1.3 nM, respectively. For the same compound, in data set [6], the Ratio EC50 is 4000.
Consider `CCCCc1c(-c2nc(-c3ccc(CN4CC(C(=O)O)C4)cc3)no2)noc1-c1ccccc1`, for which the Ratio in data set [7] amounted to 16. The same compound yielded a concentration at 4 h in data set [2] of 81 nM. In data set [8], this compound displayed a concentration at 24 h of 5 nM. The Activity in data set [4] turned out to be 60%; in data set [5] it was 82%.
For `CC(F)(F)c1c(-c2nc(-c3ccc(CN4CC(C(=O)O)C4)cc3)no2)noc1-c1ccccc1`, the figures for the 50% effective concentration (EC50) in [1] and in data set [3] were 1900 nM and 0.54 nM, respectively. The Ratio in data set [7] stood at 14. Moreover, in data set [2], the concentration at 4 h turned out to be 1400 nM. In data set [8], this compound had a concentration at 24 h of 100 nM. The Activity was 82% in [4] and 81% in data set [5]. In addition, the Ratio EC50 in [6] amounted to 3500.
For the compound `O=C(O)C1CN(Cc2ccc(-c3noc(-c4cc(-c5ccccc5)no4)n3)cc2)C1`, the response in data set [3] was half-maximal at 25 nM (EC50).
Consider `CC(C)Cc1c(-c2nc(-c3ccc(CN4CC(C(=O)O)C4)cc3)no2)noc1-c1ccccc1`, for which the EC50 in data set [1] turned out to be 730 nM; in data set [3] it was 0.56 nM. Also, the Ratio in data set [7] is given as 6. This compound displayed a concentration at 4 h in data set [2] of 190 nM. In addition, the concentration at 24 h in [8] was 30 nM. Also, the Activity in [4] came out at 82%; in [5], 80%. The Ratio EC50 in data set [6] came out at 1300.
With `O=C(O)C1CN(Cc2ccc(-c3noc(-c4noc(-c5ccccc5)c4C4CC4)n3)cc2)C1`, the EC50 in data set [1] was 1800 nM; in data set [3], 3.2 nM. For the same compound, in [6], the Ratio EC50 amounted to 540.
Consider `Cc1c(-c2nc(-c3ccc(CN4CC(C(=O)O)C4)cc3)no2)noc1-c1ccccc1`, for which the figures for the EC50 in [1] and in [3] were above 31 nM and 5 nM, respectively. Further, the Ratio in [7] is listed as 41. Also, the concentration at 4 h in data set [2] is 260 nM. For the same compound, the concentration at 24 h in [8] was determined as 6.4 nM. Further, the Activity in [4] turned out to be 0%; in [5], 68%. Besides, in [6], the Ratio EC50 is above 6300.
Regarding `CCCCCCCCc1ccc(CCC(N)(CO)CO)cc1`, the outcome in [9] was Active.
Turning to `O=C(O)C1CN(Cc2ccc(-c3noc(-c4noc(-c5ccccc5)c4-c4ccccc4)n3)cc2)C1`, the 50% effective concentration (EC50) in data set [1] amounted to 130 nM; in [3], 0.99 nM. The Ratio EC50 in data set [6] was determined as 130.
Take `CCCc1c(-c2ccccc2)noc1-c1nc(-c2ccc(CN3CC(C(=O)O)C3)cc2)no1`: the EC50 in data set [1] came to 1000 nM; in [3], 0.44 nM. In [7], the Ratio is recorded as 15. Further, the concentration at 4 h in data set [2] turned out to be 170 nM. The concentration at 24 h in data set [8] was 11 nM. Besides, the Activity in data set [4] is listed as 82%; in data set [5], 85%. Further, the Ratio EC50 in [6] was determined as 2300.
On to `CCc1c(-c2nc(-c3ccc(CN4CC(C(=O)O)C4)cc3)no2)noc1-c1ccccc1`, for which the EC50 in data set [1] came to 12000 nM; in data set [3] it was 1.6 nM. In addition, the Ratio in [7] came to 11. Also, the concentration at 4 h in data set [2] stood at 320 nM. This compound registered a concentration at 24 h in [8] of 29 nM. Also, the Activity stood at 52% in [4] and 76% in [5]. Also, the Ratio EC50 in data set [6] came out at 7500.
Turning to `CC(C)(C)c1c(-c2nc(-c3ccc(CN4CC(C(=O)O)C4)cc3)no2)noc1-c1ccccc1`, the EC50 in data set [1] turned out to be 2600 nM; in [3] it was 5.3 nM. Moreover, the Ratio in data set [7] is 9. The compound also registered a concentration at 4 h in [2] of 520 nM. This compound also came in with a concentration at 24 h in [8] of 55 nM. In addition, the Activity in data set [4] is listed as 52%; in [5], 73%. Further, the Ratio EC50 in [6] came out at 500.
In the case of `CCCc1c(-c2nc(-c3ccc(CN4CC(C(=O)O)C4)cc3)no2)noc1CC(C)C`, the values for the EC50 in data set [1] and in data set [3] were 850 nM and 0.3 nM, respectively. Moreover, the Ratio in data set [7] was determined as 33. The concentration at 4 h in data set [2] was 1300 nM. In data set [8], this compound came in with a concentration at 24 h of 41 nM. The Activity in [4] turned out to be 78%; in [5], 86%. Besides, the Ratio EC50 in [6] was 2900.

As a reminder, the EC50 is the midpoint of the concentration-response curve.
